Patent publication US20230085307A1, “PYRIDAZINONE COMPOUND AND HERBICIDE” (NISSAN CHEMICAL CORPORATION, priority 2019, published 2023)

test system: oval-leafed pondweed; experiment: Test Example 1: herbicidal activity, application before weed generation under submerged conditions (Table 16, symbol C); assay type: in vivo, oval-leafed pondweed (Monochoria vaginalis); conditions: amount of applied herbicide 320 g/ha
Method in brief: (§1)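 Submerged Wagner pots (alluvial soil, 4 cm water) sown with weed seeds and planted with 2.5-leaf rice seedlings; emulsifiable concentrate diluted in water applied to water surface on sowing day. Held in greenhouse at 25-30 °C; injury scored 0-5 by herbicidal rate after three weeks.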

Question: How did the “Herbicidal effect, C: oval-leafed pondweed” value turn out when `C=C(C)C(=O)Oc1c(C)nn(C)c(=O)c1-c1c(-c2ccccc2OC)sc2cc(OC)ccc12` [3-155] was run?
Answer: Its value is 5 (Herbicidal rate of 90% or more (almost completely withered)).

Question: For `COc1ccc2c(-c3c(OC(=O)c4ccccc4OC)c(C)nn(C)c3=O)c(-c3ccccc3OC)sc2c1` [3-158], which “Herbicidal effect, C: oval-leafed pondweed” value is on record?
Answer: Its value is 5 (Herbicidal rate of 90% or more (almost completely withered)).

test system: barnyard grass; experiment: Test Example 3: herbicidal effect by foliage application, Wagner pot (Table 18, symbol H); assay type: in vivo, barnyard grass (Echinochloa crus-galli); conditions: 320 g/ha
Method in brief: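 Plants were sown in alluvial soil held under 0.1–0.5 cm standing water and grown 14 days in a greenhouse at 25–30 °C. An emulsifiable formulation, water-diluted to the set dose, was then sprayed onto the foliage, and effects were scored three weeks later using previously defined criteria.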

Question: How did the “herbicidal effect on barnyard grass (H)” value turn out when `C=C(C)C(=O)Oc1c(C)nn(C)c(=O)c1-c1c(-c2ccccc2OC)sc2cc(OC)ccc12` [3-155] was run?
Answer: The value was 5 (Herbicidal rate of 90% or more (almost completely withered)).

Question: For `COc1ccc2c(-c3c(OC(=O)c4ccccc4OC)c(C)nn(C)c3=O)c(-c3ccccc3OC)sc2c1` [3-158], which “herbicidal effect on barnyard grass (H)” value is on record?
Answer: Its value is 5 (Herbicidal rate of 90% or more (almost completely withered)).

test system: late watergrass; experiment: Test Example 1: herbicidal activity, application before weed generation under submerged conditions (Table 16, symbol A); assay type: in vivo, late watergrass (Echinochloa oryzicola); conditions: amount of applied herbicide 320 g/ha
Method in brief: as §1

Question: `C=C(C)C(=O)Oc1c(C)nn(C)c(=O)c1-c1c(-c2ccccc2OC)sc2cc(OC)ccc12` [3-155] was tested. Which “Herbicidal effect, A: late watergrass” value did it give?
Answer: Its value is 5 (Herbicidal rate of 90% or more (almost completely withered)).

Question: Which “Herbicidal effect, A: late watergrass” value does the source give for `COc1ccc2c(-c3c(OC(=O)c4ccccc4OC)c(C)nn(C)c3=O)c(-c3ccccc3OC)sc2c1` [3-158] here?
Answer: Its value is 5 (Herbicidal rate of 90% or more (almost completely withered)).

test system: redroot pigweed; experiment: Test Example 5: herbicidal effect by foliage application, plastic box (Table 20, symbol N); assay type: in vivo, redroot pigweed (Amaranthus retroflexus); conditions: 320 g/ha, foliage application after 14-day growth, evaluated three weeks after application
Method in brief: (§2)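 Post-emergence foliar test in sterilized diluvial soil. Compound applied as water-diluted emulsion at a predetermined rate to 14-day-old plants; evaluation at three weeks.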

Question: With `C=C(C)C(=O)Oc1c(C)nn(C)c(=O)c1-c1c(-c2ccccc2OC)sc2cc(OC)ccc12` [3-155] as the molecule, how does the “herbicidal effect on N: redroot pigweed (evaluation grade 0-5)” value read?
Answer: The value was 5 (Herbicidal rate of 90% or more (almost completely withered)).

Question: For `COc1ccc2c(-c3c(OC(=O)c4ccccc4OC)c(C)nn(C)c3=O)c(-c3ccccc3OC)sc2c1` [3-158], which “herbicidal effect on N: redroot pigweed (evaluation grade 0-5)” value is on record?
Answer: Its value is 5 (Herbicidal rate of 90% or more (almost completely withered)).

test system: southern crabgrass; experiment: Test Example 5: herbicidal effect by foliage application, plastic box (Table 20, symbol F); assay type: in vivo, southern crabgrass (Digitaria ciliaris); conditions: 320 g/ha, foliage application after 14-day growth, evaluated three weeks after application
Method in brief: as §2

Question: With `C=C(C)C(=O)Oc1c(C)nn(C)c(=O)c1-c1c(-c2ccccc2OC)sc2cc(OC)ccc12` [3-155] as the molecule, how does the “herbicidal effect on F: southern crabgrass (evaluation grade 0-5)” value read?
Answer: Its value is 5 (Herbicidal rate of 90% or more (almost completely withered)).

Question: `COc1ccc2c(-c3c(OC(=O)c4ccccc4OC)c(C)nn(C)c3=O)c(-c3ccccc3OC)sc2c1` [3-158] was tested. Which “herbicidal effect on F: southern crabgrass (evaluation grade 0-5)” value did it give?
Answer: Its value is 5 (Herbicidal rate of 90% or more (almost completely withered)).

test system: late watergrass; experiment: Test Example 2: herbicidal activity, application during weed generation under submerged conditions (Table 17, symbol A); assay type: in vivo, late watergrass (Echinochloa oryzicola); conditions: AAH 320 g/ha; application during weed generation, submerged conditions
Method in brief: (§3)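 In this pot test, flooded alluvial soil (water depth 4 cm) holds all three species sown as a mixture. Once seedlings have one to two leaves, the compound's emulsion, thinned with water to the intended dose, is poured on the water; grading follows after three weeks on the earlier criteria.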

Question: Which “herbicidal effect rating, A: late watergrass” value does the source give for `C=C(C)C(=O)Oc1c(C)nn(C)c(=O)c1-c1c(-c2ccccc2OC)sc2cc(OC)ccc12` [3-155] here?
Answer: Its value is 5 (Herbicidal rate of 90% or more (almost completely withered)).

Question: How did the “herbicidal effect rating, A: late watergrass” value turn out when `COc1ccc2c(-c3c(OC(=O)c4ccccc4OC)c(C)nn(C)c3=O)c(-c3ccccc3OC)sc2c1` [3-158] was run?
Answer: Its value is 4 (Herbicidal rate of 70% or more and less than 90%).

test system: green foxtail; experiment: Test Example 5: herbicidal effect by foliage application, plastic box (Table 20, symbol G); assay type: in vivo, green foxtail (Setaria viridis); conditions: 320 g/ha, foliage application after 14-day growth, evaluated three weeks after application
Method in brief: as §2

Question: Which “herbicidal effect on G: green foxtail (evaluation grade 0-5)” value does the source give for `C=C(C)C(=O)Oc1c(C)nn(C)c(=O)c1-c1c(-c2ccccc2OC)sc2cc(OC)ccc12` [3-155] here?
Answer: Its value is 5 (Herbicidal rate of 90% or more (almost completely withered)).

Question: Which “herbicidal effect on G: green foxtail (evaluation grade 0-5)” value does the source give for `COc1ccc2c(-c3c(OC(=O)c4ccccc4OC)c(C)nn(C)c3=O)c(-c3ccccc3OC)sc2c1` [3-158] here?
Answer: Its value is 5 (Herbicidal rate of 90% or more (almost completely withered)).

test system: chickweed; experiment: Test Example 4: herbicidal effect by soil treatment (Table 19, symbol P); assay type: in vivo, common chickweed (Stellaria media); conditions: amount of applied herbicide 320 g/ha
Method in brief: (§4)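 Emulsion of test compound, water-diluted to predetermined amount, sprayed on soil after sowing (seed depth ~1.5 cm, sterilized diluvial soil). Greenhouse, 25–30° C. Effect graded at three weeks post-spray.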

Question: Which “Herbicidal effect by soil treatment, P: chickweed” value does the source give for `C=C(C)C(=O)Oc1c(C)nn(C)c(=O)c1-c1c(-c2ccccc2OC)sc2cc(OC)ccc12` [3-155] here?
Answer: The value was 1 (Herbicidal rate of 5% or more and less than 20%).

Question: How did the “Herbicidal effect by soil treatment, P: chickweed” value turn out when `COc1ccc2c(-c3c(OC(=O)c4ccccc4OC)c(C)nn(C)c3=O)c(-c3ccccc3OC)sc2c1` [3-158] was run?
Answer: Its value is 1 (Herbicidal rate of 5% or more and less than 20%).

test system: southern crabgrass; experiment: Test Example 4: herbicidal effect by soil treatment (Table 19, symbol F); assay type: in vivo, southern crabgrass (Digitaria ciliaris); conditions: amount of applied herbicide 320 g/ha
Method in brief: as §4

Question: How did the “Herbicidal effect by soil treatment, F: southern crabgrass” value turn out when `C=C(C)C(=O)Oc1c(C)nn(C)c(=O)c1-c1c(-c2ccccc2OC)sc2cc(OC)ccc12` [3-155] was run?
Answer: The value was 0 (Herbicidal rate of 5% or less (almost no effect)).

Question: Which “Herbicidal effect by soil treatment, F: southern crabgrass” value does the source give for `COc1ccc2c(-c3c(OC(=O)c4ccccc4OC)c(C)nn(C)c3=O)c(-c3ccccc3OC)sc2c1` [3-158] here?
Answer: The value was 0 (Herbicidal rate of 5% or less (almost no effect)).

test system: oval-leafed pondweed; experiment: Test Example 2: herbicidal activity, application during weed generation under submerged conditions (Table 17, symbol C); assay type: in vivo, oval-leafed pondweed (Monochoria vaginalis); conditions: AAH 320 g/ha; application during weed generation, submerged conditions
Method in brief: as §3

Question: With `C=C(C)C(=O)Oc1c(C)nn(C)c(=O)c1-c1c(-c2ccccc2OC)sc2cc(OC)ccc12` [3-155] as the molecule, how does the “herbicidal effect rating, C: oval-leafed pondweed” value read?
Answer: Its value is 5 (Herbicidal rate of 90% or more (almost completely withered)).

Question: With `COc1ccc2c(-c3c(OC(=O)c4ccccc4OC)c(C)nn(C)c3=O)c(-c3ccccc3OC)sc2c1` [3-158] as the molecule, how does the “herbicidal effect rating, C: oval-leafed pondweed” value read?
Answer: Its value is 5 (Herbicidal rate of 90% or more (almost completely withered)).

test system: velvetleaf; experiment: Test Example 4: herbicidal effect by soil treatment (Table 19, symbol M); assay type: in vivo, velvetleaf (Abutilon theophrasti); conditions: amount of applied herbicide 320 g/ha
Method in brief: as §4

Question: For `C=C(C)C(=O)Oc1c(C)nn(C)c(=O)c1-c1c(-c2ccccc2OC)sc2cc(OC)ccc12` [3-155], which “Herbicidal effect by soil treatment, M: velvetleaf” value is on record?
Answer: The value was 0 (Herbicidal rate of 5% or less (almost no effect)).

Question: How did the “Herbicidal effect by soil treatment, M: velvetleaf” value turn out when `COc1ccc2c(-c3c(OC(=O)c4ccccc4OC)c(C)nn(C)c3=O)c(-c3ccccc3OC)sc2c1` [3-158] was run?
Answer: Its value is 0 (Herbicidal rate of 5% or less (almost no effect)).

test system: windgrass; experiment: Test Example 4: herbicidal effect by soil treatment (Table 19, symbol L); assay type: in vivo, windgrass (Apera spica-venti); conditions: amount of applied herbicide 320 g/ha
Method in brief: as §4

Question: With `C=C(C)C(=O)Oc1c(C)nn(C)c(=O)c1-c1c(-c2ccccc2OC)sc2cc(OC)ccc12` [3-155] as the molecule, how does the “Herbicidal effect by soil treatment, L: windgrass” value read?
Answer: Its value is 4 (Herbicidal rate of 70% or more and less than 90%).

Question: How did the “Herbicidal effect by soil treatment, L: windgrass” value turn out when `COc1ccc2c(-c3c(OC(=O)c4ccccc4OC)c(C)nn(C)c3=O)c(-c3ccccc3OC)sc2c1` [3-158] was run?
Answer: The value was 0 (Herbicidal rate of 5% or less (almost no effect)).

test system: redroot pigweed; experiment: Test Example 4: herbicidal effect by soil treatment (Table 19, symbol N); assay type: in vivo, redroot pigweed (Amaranthus retroflexus); conditions: amount of applied herbicide 320 g/ha
Method in brief: as §4

Question: Which “Herbicidal effect by soil treatment, N: redroot pigweed” value does the source give for `C=C(C)C(=O)Oc1c(C)nn(C)c(=O)c1-c1c(-c2ccccc2OC)sc2cc(OC)ccc12` [3-155] here?
Answer: Its value is 4 (Herbicidal rate of 70% or more and less than 90%).

Question: With `COc1ccc2c(-c3c(OC(=O)c4ccccc4OC)c(C)nn(C)c3=O)c(-c3ccccc3OC)sc2c1` [3-158] as the molecule, how does the “Herbicidal effect by soil treatment, N: redroot pigweed” value read?
Answer: The value was 2 (Herbicidal rate of 20% or more and less than 40%).

test system: Japanese bulrush; experiment: Test Example 1: herbicidal activity, application before weed generation under submerged conditions (Table 16, symbol B); assay type: in vivo, Japanese bulrush (Schoenoplectus juncoides); conditions: amount of applied herbicide 320 g/ha
Method in brief: as §1

Question: For `C=C(C)C(=O)Oc1c(C)nn(C)c(=O)c1-c1c(-c2ccccc2OC)sc2cc(OC)ccc12` [3-155], which “Herbicidal effect, B: Japanese bulrush” value is on record?
Answer: The value was 5 (Herbicidal rate of 90% or more (almost completely withered)).

Question: `COc1ccc2c(-c3c(OC(=O)c4ccccc4OC)c(C)nn(C)c3=O)c(-c3ccccc3OC)sc2c1` [3-158] was tested. Which “Herbicidal effect, B: Japanese bulrush” value did it give?
Answer: The value was 5 (Herbicidal rate of 90% or more (almost completely withered)).

test system: persian speedwell; experiment: Test Example 4: herbicidal effect by soil treatment (Table 19, symbol R); assay type: in vivo, Persian speedwell (Veronica persica); conditions: amount of applied herbicide 320 g/ha
Method in brief: as §4

Question: How did the “Herbicidal effect by soil treatment, R: persian speedwell” value turn out when `C=C(C)C(=O)Oc1c(C)nn(C)c(=O)c1-c1c(-c2ccccc2OC)sc2cc(OC)ccc12` [3-155] was run?
Answer: Its value is 0 (Herbicidal rate of 5% or less (almost no effect)).

Question: Which “Herbicidal effect by soil treatment, R: persian speedwell” value does the source give for `COc1ccc2c(-c3c(OC(=O)c4ccccc4OC)c(C)nn(C)c3=O)c(-c3ccccc3OC)sc2c1` [3-158] here?
Answer: The value was 0 (Herbicidal rate of 5% or less (almost no effect)).

test system: wild oat; experiment: Test Example 4: herbicidal effect by soil treatment (Table 19, symbol I); assay type: in vivo, wild oat (Avena fatua); conditions: amount of applied herbicide 320 g/ha
Method in brief: as §4

Question: For `C=C(C)C(=O)Oc1c(C)nn(C)c(=O)c1-c1c(-c2ccccc2OC)sc2cc(OC)ccc12` [3-155], which “Herbicidal effect by soil treatment, I: wild oat” value is on record?
Answer: The value was 0 (Herbicidal rate of 5% or less (almost no effect)).

Question: `COc1ccc2c(-c3c(OC(=O)c4ccccc4OC)c(C)nn(C)c3=O)c(-c3ccccc3OC)sc2c1` [3-158] was tested. Which “Herbicidal effect by soil treatment, I: wild oat” value did it give?
Answer: Its value is 0 (Herbicidal rate of 5% or less (almost no effect)).
